In patent publication US20230277508A1, “USE OF COMPOUND AS CYP2E1 INHIBITOR” (SHANGHAI LING XI BIOTECHNOLOGY DEVELOPMENT CO., LTD., priority 2020, published 2023):

What was measured:
[1] = test system: liver steatosis and hepatitis in mice caused by a high-fat diet; test: Mouse liver steatosis and hepatitis model induced by a high-fat diet; type: in vivo, C57/6J mice; conditions: 22 weeks, vs model group
Method: Experimental method: Healthy male C57/6J mice were fed with a high-fructose, high-fat, and high-cholesterol feed to prepare mouse liver steatosis and hepatitis models, and a control group was fed with a low-fat and low-sugar control feed. An SMI0 intervention group was divided into a low-dose intervention group and a high-dose intervention group, which were intragastrically administered with the compound SMI0 at 30 mg/kg and 150 mg/kg every day from the beginning of modeling to the 22nd week of modeling. At the end of the 22-week experiment, blood was collected from the orbit, a body weight was measured, and then the mice each were sacrificed. The weight and appearance of a liver (color, texture, and presence or absence of nodules of the liver) were recorded. Some liver specimens were subjected to HE staining and then observed, and a steatosis score of mice in each group was recorded; and Masson staining was conducted to evaluate a liver fibrosis status of mice, and an oil red O staining area percentage and an LCA staining inflammation score were determined (model group, n=8 mice; SMI0 compound low-dose group, […]).
The pathological results of HE staining of a liver tissue were subjected to quantitative scoring based on the following criteria to determine a steatosis severity:
The pathological results of Masson staining of a liver tissue were subjected to quantitative scoring based on the following criteria to determine a fibrosis severity: […]

[2] = test system: B16-F10 cell lung metastasis; test: Lung metastasis model, tail vein injection of melanoma cell B16-F10; type: in vivo, C57BL/6 mouse; conditions: SMI0 30 mg/kg, 14 days
Method: Experimental method: A female C57BL/6 mouse lung metastasis model was constructed through tail vein injection of a melanoma cell B16-F10, with a cell amount of 8*10^5. Mice were divided into a control group, a model group, and an SMI0 intervention group, and the modeling took 14 days (control group, n=5; model group, n=5; and SMI0 (30 mg/kg), n=4). At the end of the experiment, a body weight of mice in each group was recorded, blood was collected from the orbit, the mice were sacrificed, and lung tissues were collected and weighed. The lung tissues were fixed in a formalin solution for 24 h, and a number of lung nodules of mice in each group was recorded.

GL261 cells = test: Direct effect on GL261 glioma cells in vitro; type: cell-based, murine
Method: Experimental method: GL261 murine glioma cells and U251 human glioma cells in a logarithmic growth phase each were selected and inoculated into a 96-well plate at a concentration of 5*10^5 cells/mL, then 100 μL of a cell suspension was added to each well, and 12 h later, a medium was discarded; 200 μL of a basic medium including SMI0 at different concentrations ([…]) was added to each well, […]; and the cells were further cultivated for 2 h, and an absorbance OD value of each well was determined at 450 nm by a microplate reader. 3 replicates were set for each well, and an average was taken. The proliferation activity was calculated based on the OD value.

M2 microglial cells = test: Inflammatory factor and lipid metabolism gene levels in co-cultivated glial cells (qPCR); type: cell-based, mouse; conditions: SMI0 50 μmol/L vs M2 microglial cell co-cultivation group
Method: Experimental method: 10 1-2 d newborn C57BL/6 WT mice and 6 CYP2E1^−/− mice were taken, primary microglial cells and astrocytes were collected and inoculated into 6-well plates, and 24 h later, culture supernatants were taken and co-cultivated with glioma cells. Experimental groups: control group; M2 model group; high-concentration, medium-concentration, and low-concentration SMI0 (50 μmol/L, 12.5 μmol/L, and 3.1 μmol/L) groups; and CYP2E1 gene-knockout group. 24 h later, supernatants were discarded; and […] and IL-13 each were added at 20 ng/mL to induce the transformation of microglial cells into the M2 type in the M2 model group and the high-concentration, medium-concentration, and low-concentration SMI0 groups, and different concentrations of SMI0 (50 μmol/L, 12.5 μmol/L, and 3.1 μmol/L) were also added in the intervention groups. The proliferation of glioma cells was determined by a CCK8 method, and an apoptosis proportion was determined by an Annexin V-FITC-PI apoptosis staining kit.
Experimental method: Astrocytes in the co-cultivation group were collected, RNA was extracted and reverse-transcribed into cDNA, and the changes of inflammatory factor and cholesterol metabolism-associated genes were detected by qPCR.

[3] = test system: cognitive dysfunction in STZ-induced AD rat model; test: STZ-induced AD rat model, Morris water maze; type: in vivo, SD rat; conditions: for Number of crossing platform / Time spent in the platform quadrant: MWM spatial exploration; for Number of crossing platform / Time spent in the platform quadrant / Incubation period Day 1 / Incubation period Day 2 / Incubation period Day 3 / Incubation period Day 4 / Incubation period Day 5 / Incubation period Day 6: n=15; for Incubation period Day 1 / Incubation period Day 2 / Incubation period Day 3 / Incubation period Day 4 / Incubation period Day 5 / Incubation period Day 6: MWM
Method: Experimental method: A male SD rat AD model was constructed through bilateral intracerebroventricular injection of STZ, where STZ was injected at 3 mg/kg on day 1 and STZ was injected at 1.5 mg/kg on day 3. STZ was injected into bilateral cerebral ventricles (0.9 mm posterior to the anterior fontanelle, 1.5 mm at the left or right of the sagittal suture, and below the brain surface and 3.8 mm to the skull) by a brain stereotaxic instrument. The sham-operated group was injected with a same volume of a control solvent according to same operations. The low-dose and high-dose prevention and treatment groups were intragastrically administered with the compound SMI0 respectively at 10 mg/kg and 30 mg/kg starting from day 11 after modeling, and the administration was conducted consecutively for 21 d. On day 14 of the continuous administration (that is, on […] of modeling), the Morris water maze (MWM) was used to conduct spatial positioning navigation training consecutively for 6 d, and a spatial exploration experiment was conducted 24 h after the spatial positioning navigation training was completed (15 rats in each group).

[4] = SMI0 high-dose 150 mg/kg ig daily
[5] = SMI0 low-dose 30 mg/kg ig daily

SMILES: CC(=O)c1scnc1C [SMI0]
- liver inflammation level (number of LCA-positive cell staining foci) [1, 4]: significantly reduced
- oil red O staining area percentage [1, 4]: significantly reduced
- steatosis score [1, 4]: significantly reduced
- liver coefficient [1, 5]: significantly reduced
- oil red O staining area percentage [1, 5]: significantly reduced
- steatosis score [1, 5]: significantly reduced
- lung weight ([2]; vs model group): significantly reduced
- number of nodules ([2]; vs model group): significantly reduced
- tumor proliferation inhibition rate ([2]; as high as): 58.3%
- inhibitory effect on GL261 (GL261 cells; 0 μM to 128 μM, 48 h): no significant inhibitory effect
- effect on the proliferation of GL261 glioma cells (GL261 cells; up to 128 μmol/L or 200 μmol/L, CCK8): no significant inhibitory effect
- level of IL-4 (M2 microglial cells): significantly reduced
- level of IL-10 (M2 microglial cells): significantly reduced
- level of IL-13 (M2 microglial cells): significantly reduced
- level of the lipid metabolism-associated gene PPAR-α (M2 microglial cells): significantly increased
- Number of crossing platform ([3]; SMI0 10 mg/kg ig): 5.1
- Time spent in the platform quadrant ([3]; SMI0 10 mg/kg ig): 29.4%
- Number of crossing platform ([3]; SMI0 30 mg/kg ig): 8.2
- Time spent in the platform quadrant ([3]; SMI0 30 mg/kg ig): 39.3%
- Incubation period Day 1 ([3]; SMI0 10 mg/kg ig for 21 d): 95.7 s
- Incubation period Day 2 ([3]; SMI0 10 mg/kg ig for 21 d): 61.1 s
- Incubation period Day 3 ([3]; SMI0 10 mg/kg ig for 21 d): 39.5 s
- Incubation period Day 4 ([3]; SMI0 10 mg/kg ig for 21 d): 33.2 s
- Incubation period Day 5 ([3]; SMI0 10 mg/kg ig for 21 d): 23.1 s
- Incubation period Day 6 ([3]; SMI0 10 mg/kg ig for 21 d): 18.5 s
- Incubation period Day 1 ([3]; SMI0 30 mg/kg ig for 21 d): 94.6 s
- Incubation period Day 2 ([3]; SMI0 30 mg/kg ig for 21 d): 52.7 s
- Incubation period Day 3 ([3]; SMI0 30 mg/kg ig for 21 d): 35.9 s
- Incubation period Day 4 ([3]; SMI0 30 mg/kg ig for 21 d): 25.2 s
- Incubation period Day 5 ([3]; SMI0 30 mg/kg ig for 21 d): 20.0 s
- Incubation period Day 6 ([3]; SMI0 30 mg/kg ig for 21 d): 18.6 s
- improvement rate of ICV-STZ-induced cognitive dysfunction ([3]; SMI0 high-dose group (30 mg/kg), vs model group, significant): 46.7%
- improvement rate of ICV-STZ-induced cognitive dysfunction ([3]; SMI0 low-dose group (10 mg/kg), without a significant statistical difference): 32.6%
